The values that follow come from patent publication US7139415B2, “Robotic microscopy systems” (The Regents of the University of California, priority 2001, dated 2006).

Data set [1] concerns neurons transfected with GFP. The experiment in a line: Automated imaging of survival of GFP-transfected neurons. It counts as cell-based. Conditions: kainate added 24 or 76 hours after transfection, compared with untreated sister culture. How it is done: (§1) If the “loss” of GFP corresponded to the death of a neuron, that the loss of GFP positive neurons could be quantified over time as a measure of neuronal survival. To test whether the “loss” of GFP corresponded to the death of a neuron, the loss of GFP in transfected neurons was measured at the same time as the loss of membrane integrity using a membrane impermeant nuclear dye, ethidium homodimer (EtHD). EtHD staining of cell nuclei is taken as a positive sign of death in the widely used “LIVE-DEAD” assay.
Next, expression of the transfection marker GFP was tested for its affect on survival. FIG. 16E is a graph showing the results of a parallel experiment, in which the survival of transfected neurons in two sister cultures was compared. One culture was imaged once at the end of the experiment (hatched bar) and the other was imaged both a day after transfection and at the end of the experiment (solid bars). The two cultures show nearly identical survival. Finally, if this approach is a valid way to measure neuronal survival, it should be able to detect the effects of molecules known to regulate survival. First, the ability to detect the neurotoxicity of kainic acid was tested. […]
FIG. 16C is a graph showing survival of transfected neurons in three sister cultures was monitored and compared. […]

Another data set has as its system GFP transfected neurons. It counts as cell-based. The following applies: in the presence of extracellular EtHD. Here is the method:
as §1
FIG. 16A is a panel of photographs exemplifying application of an automated imaging system to the study of neuronal survival, and showing that loss of GFP fluorescence correlates with a loss of membrane integrity and nuclear staining with ethidium homodimer. […] Between 60 (not shown) and 75 minutes, GFP fluorescence is abruptly lost from one neuron and its nucleus stains positively for EtHD. Later, the other transfected neuron in the image loses GFP fluorescence and stains positively for EtHD. […] Thus, overall, the GFP fluorescence of particular neurons disappeared eventually but abruptly, and at that same moment, the nuclei of those neurons stained positively with EtHD (FIG. 16A). Thus, the loss of GFP fluorescence correlated well with one widely accepted measure of cell death.

As to `C=C(C)[C@H]1CN[C@H](C(=O)O)[C@H]1CC(=O)O` [kainic acid], the “neuronal survival (number of surviving GFP positive neurons)” value in data set [1] is “significant decrease in neuronal survival”. The “morphology of GFP transfected neurons in response to the neurotoxin” value with GFP transfected neurons is “cell bodies of GFP transfected neurons rounded and swelled and their neurites began to retract”.
